Literature values as cited in US20110321180A1, “COMPOSITIONS AND METHODS TO GENERATE PILOSEBACEOUS UNITS” (University of Southern California, priority 2008, published 2011).

B1: noggin: BMP antagonist protein, UniProt: Q13253 (protein, UniProt Q13253 28-232, looked up)
Noggin: QHYLHIRPAPSDNLPLVDLIEHPDPIFDPKEKDLNETLLRSLLGGHYDPGFMATSPPEDRPGGGGGAAGGAEDLAELDQLLRQRPSGAMPSEIKGLEFSEGLAQGKKQRLSKKLRRKLQMWLWSQTFCPVLYAWNDLGSRFWPRYVKVGSCFSKRSCSVPEGMVCKPSKSVHLTVLRWRCQRRGGQRCGWIPIQYPIISECKCSC

Experiments:
[1] = DMSO
[2] = in published reports

Molecule	solubility [1]	toxicity [2]	size of hair germs (hair germs)
c1cc(-c2cnn3cc(-c4ccc(OCCN5CCCCC5)cc4)cnc23)ccn1 [Dorsomorphin]	soluble in DMSO	low toxicity	
B1			makes hair germs bigger
